Measurements reported in patent US20250066347A1, “SUBSTITUTED THIAZOLIDINEDIONE DERIVATIVE COMPOUND, AND PHARMACEUTICAL COMPOSITION FOR PREVENTING OR TREATING CANCER, COMPRISING SAME” (MEDIFIC, INC., priority 2021, published 2025).
Values joined by “and” are separate entries in the source; they are usually repeats but may differ in a detail not shown here. Equal values may be shown once. Read-outs that look alike come from different tables or passages of the source.

Tests used:
[1] = In vivo PK test, drug concentration in plasma after oral or intravenous administration; conditions: mouse
Description: • Experimental Drug: Compound 11 • Excipient: 10% DMSO, 75% PEG400, 15% saline 1.2. Experimental system • mouse, CRljOri:CD1(ICR), SPF 6 weeks old (7 weeks old at the time of administration) 1.3. Administration route • oral administration (PO), intravenous administration (IV) 1.4. Administration method and number of administration
After obtaining the mouse, the mouse was acclimatized for 5 days, and used in the experiment. An administration dose was 25 mg/kg by oral administration and 5 mg/kg by intravenous administration. A dosage for each individual was calculated based on the weight after fasting (on the day of administration), and the drug was orally administered once to an oral administration (PO) group using a disposable syringe (1 mL) with a zonde for oral administration attached, and intravenously administered to the tail vein of an intravenous administration (IV) group using a disposable syringe (1 mL).
About 0.3 mL of blood was collected from a jugular vein with a 1 mL syringe (25G) treated with 3.8% sodium citrate (about 30˜40 μl), placed in one microtube (QSP, 1.5 mL), and centrifuged at 12,000 RPM/3 min to collect plasma. The plasma was frozen and stored at −80° C. until analysis, and all animals of a pharmacokinetic experiment group were euthanized after completing the blood collection.
580 μl of acetonitrile (including internal standard) was added to 20 μl of plasma/tissue, and centrifugation was performed at 4° C. at 15,000 rpm for 5 minutes with vortexing. A supernatant obtained after the centrifugation was analyzed with LC-MS/MS.
PK parameter was calculated as a non-compartmental analysis model, using a phoenix WinNonlin 6.4 version (Pharsight, USA) program.

[2] = tested on: HOG-GSC brain tumor stem cell line; assay: In vivo efficacy evaluation, HOG-GSC orthotopic xenograft model; set-up: species or system BALB/c nude mouse; conditions: 25 mg/kg/day oral, day 16 after tumor transplantation
Text: First, HOG-GSC which is a brain tumor stem cell line was transplanted to a caudate putamen in the brain of a BALB/c nude mouse to establish am orthotropic xenograft model. After transplanting the brain tumor stem cells, the implementation compound of the present invention was orally administered from day 7 for 3 weeks with a schedule of 5 days of administration and 2 days of off medication, and only excipient was administration in the same manner to the control group. Thereafter, based on clinical findings resulting from the growth of the brain tumor in the animals, the survival period of the mouse was investigated, thereby confirming that the death of the animal due to a tumor was delayed by the administration of the implementation compound of the present invention. In addition, both the control mouse and the mouse to which the implementation compound of the present invention was administered were euthanized on day 16 after transplanting the tumor, their brain tissues were harvested, and the sizes of the brain tumor on the same date were compared.

[3] = CRljOri:CD1(ICR), 25 mg/kg oral administration, plasma

## CC(C)(C)c1ccc(-c2cc(/C=C3\SC(=O)NC3=O)ccn2)cc1 [Compound 11, (Z)-5-((2-(4-(tert-butyl)phenyl)pyridin-4-yl)methylene)thiazolidine-2,4-dione]
[1]; CRljOri:CD1(ICR), plasma, po, 25 mg/kg, oral 25 mg/kg, 8 hr, read-out: Drug concentration in plasma, Individual
  concentration at 8 h: 3930 ng/mL
[1]; CRljOri:CD1(ICR), plasma, po, 25 mg/kg, oral 25 mg/kg, 24 hr, BQL = <1 ng/ml, read-out: Drug concentration in plasma, Individual
  concentration at 24 h: 4.1 ng/mL
[1]; CRljOri:CD1(ICR), plasma, po, 25 mg/kg, oral 25 mg/kg, 24 hr, read-out: Drug concentration in plasma, Average
  concentration at 24 h: 3.6 ng/mL
[1]; CRljOri:CD1(ICR), plasma, 25 mg/kg oral compared with 5 mg/kg intravenous, read-out: bioavailability (BA)
  bioavailability: 62.4%
[1]; [3]
  AUC(0-t): 39400 ng·h/mL
  Cmax: 5040 ng/mL
  Tmax: 1.6 h
  half-life: 234 min
[1]; intravenous 5 mg/kg, 0.08 hr, 5 mg/kg
  Drug concentration in plasma, Individual: 2800.0 ng/mL and 1900.0 ng/mL and 2700.0 ng/mL
[1]; intravenous 5 mg/kg, 0.25 hr, 5 mg/kg
  Drug concentration in plasma, Individual: 2240.0 ng/mL and 2890.0 ng/mL and 2430.0 ng/mL
[1]; intravenous 5 mg/kg, 0.5 hr, 5 mg/kg
  Drug concentration in plasma, Individual: 1890.0 ng/mL and 2360.0 ng/mL and 2000.0 ng/mL
[1]; intravenous 5 mg/kg, 1 hr, 5 mg/kg
  Drug concentration in plasma, Individual: 1780.0 ng/mL and 2380.0 ng/mL and 1630.0 ng/mL
[1]; intravenous 5 mg/kg, 2 hr, 5 mg/kg
  Drug concentration in plasma, Individual: 1420.0 ng/mL and 2240.0 ng/mL and 1480.0 ng/mL
[1]; intravenous 5 mg/kg, 4 hr, 5 mg/kg
  Drug concentration in plasma, Individual: 1410.0 ng/mL and 1400.0 ng/mL and 1260.0 ng/mL
[1]; intravenous 5 mg/kg, 6 hr, 5 mg/kg
  Drug concentration in plasma, Individual: 476.0 ng/mL and 491.0 ng/mL and 1080.0 ng/mL and 561.0 ng/mL
[1]; intravenous 5 mg/kg, 8 hr, 5 mg/kg
  Drug concentration in plasma, Individual: 614.0 ng/mL and 618.0 ng/mL and 644.0 ng/mL
[1]; intravenous 5 mg/kg, 24 hr, BQL = <1 ng/ml, ND = not detectable, 5 mg/kg
  Drug concentration in plasma, Individual: 1.7 ng/ml and BQL
[1]; oral 25 mg/kg, 0.25 hr, 25 mg/kg
  Drug concentration in plasma, Individual: 3210.0 ng/mL and 2230.0 ng/mL and 4300.0 ng/mL and 2000.0 ng/mL
[1]; oral 25 mg/kg, 0.5 hr, 25 mg/kg
  Drug concentration in plasma, Individual: 3590.0 ng/mL and 2340.0 ng/mL and 4750.0 ng/mL and 7010.0 ng/mL
[1]; oral 25 mg/kg, 1 hr, 25 mg/kg
  Drug concentration in plasma, Individual: 4140.0 ng/mL and 2380.0 ng/mL and 2070.0 ng/mL and 6490.0 ng/mL
[1]; oral 25 mg/kg, 2 hr, 25 mg/kg
  Drug concentration in plasma, Individual: 3270.0 ng/mL and 2030.0 ng/mL and 4100.0 ng/mL and 6070.0 ng/mL
[1]; oral 25 mg/kg, 4 hr, 25 mg/kg
  Drug concentration in plasma, Individual: 2020.0 ng/mL and 4420.0 ng/mL and 2930.0 ng/mL and 4810.0 ng/mL
[1]; oral 25 mg/kg, 6 hr, 25 mg/kg
  Drug concentration in plasma, Individual: 7260.0 ng/mL and 8180.0 ng/mL and 2630.0 ng/mL and 3680.0 ng/mL
[1]; oral 25 mg/kg, 8 hr, 25 mg/kg
  Drug concentration in plasma, Individual: 4120.0 ng/mL and 4850.0 ng/mL and 7180.0 ng/mL
[1]; oral 25 mg/kg, 24 hr, BQL = <1 ng/ml, 25 mg/kg
  Drug concentration in plasma, Individual: BQL and 2.5 ng/ml and 4.1 ng/ml
[2]
  Tumor cross-sectional area/brain cross-sectional ratio, Average: 0.02186
  Tumor cross-sectional area/brain cross-sectional ratio, individual: 0.04373 and 0
